From patent EP4635958A1, “PYRIMIDINE-CONTAINING POLYCYCLIC DERIVATIVE INHIBITOR, AND PREPARATION METHOD THEREFOR AND USE THEREOF” (Shanghai Hansoh Biomedical Co., Ltd., priority 2022, dated 2024)
Structures can show the parent of a compound that is named as a salt. Where two headings read alike, the source gives them in different places.

Columns and labels:
p-ERK in AGS cells = assay: Inhibition of p-ERK in AGS cells (LANCE Ultra phospho-ERK1/2 kit); assay type: cell-based; conditions: Homo sapiens, AGS, 2 h, read-out: AGS_pERK IC50
Procedure: 1. Experimental objective: The inhibition activity of the example compounds on the phosphorylated ERK level in KRAS G12D mutant cells AGS was determined. 2. Experimental instruments: • 2.1 Instruments: Envison; Pipette (Eppendorf & Rainin) • 2.2 Reagents: AGS cells were purchased from COBIOER BIOSCIENCES CO., LTD, with a catalog number of CBP60476; Phosphorylated ERK1/2 (T202-Y204) LANCE Ultra Cellular Detection Kit was purchased from PerkinElmer, with a catalog number of TRF4000M; RPMI 1640 was purchased from Gibco, with a catalog number of 22400071; FBS was purchased from Gibco, with a catalog number of 10091148; PBS was purchased from Gibco, with a catalog number of 10010023; trypsin was purchased from Gibco, with a catalog number of 25200056; cell culture plates were purchased from Corning Company, with a catalog number of 3610; White opaque OptiPlate™-384 plates were purchased from PerkinElmer, with a catalog number of 6007290. 3. Experimental method: When AGS cells were cultured to appropriate confluence, the AGS cells were collected, and the cell density was adjusted to 4 × 10^5/mL using complete culture medium. The cell suspension was plated onto a 96-well plate at 100 µL per well, and the plate was placed in the incubator at 37°C and 5% CO2 for adherent culture overnight. Solutions of the compound with different concentrations were formulated using DMSO and complete culture medium, and a vehicle control was set up. The solutions of the compound were added to the 96-well plate at 25 µL per well, and the plate was placed in the incubator at 37°C and 5% CO2 for further culture for 2 h. Then, the supernatant of the cell culture plate was discarded, 50 µL of lysis buffer was added to each well, the cells were lysed at room temperature under shaking for 30 min, then placed in a centrifuge and centrifuged at 1000 rpm for 1 min. 15 µL of supernatant was transferred to a 384-well plate, 5 µL of detection mixture was added to each well (Eu-labeled anti-ERK1/2 (T202-Y204) Antibody at a final detection concentration of 0.5 nM and ULight labeled anti-ERK1/2 Antibody at a final detection concentration of 5 nM), centrifuged at 1000 rpm for 1 min, mixed evenly, and reacted at room temperature overnight. The plate was read using Envison and the signal values at the emission wavelengths of 620 nm and 665 nm were detected using a time-resolved fluorescence program. 4. […] Graphpad Prism software was used to fit the concentration and inhibition rate to a nonlinear regression curve, so as to obtain the IC50 value. Table 5: Inhibition activity of the compounds on p-ERK in AGS cells

[1] = Plasma stability test, human plasma; assay type: in vitro ADME; conditions: for half-life: read-out: t1/2 (converted);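 as to all read-outs here: test compound incubated in human plasma, quantified by LC-MS/MS (positive-ion ESI, MRM) against an internal standard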
Procedure: Liquid chromatography-mass spectrometer, centrifuge, vortexer, pipette, continuous dispenser, 96-well plate, 50% methanol aqueous solution, acetonitrile solution containing internal standard, blank matrix (plasma of rat, dog, or human), Propantheline (propantheline bromide), Mevinolin (lovastatin), and test compound.
After whole blood was collected from animals or humans, it was placed in a test tube containing an anticoagulant and centrifuged at 3500 rpm for 10 min to collect the upper pale yellow plasma.
The compound was weighed and the stock solution was formulated with DMSO and the working solution was formulated with 100 mM phosphate buffer.
• Instrument: API4000 liquid chromatography-mass spectrometer, AB Company, USA; • the ion source was electrospray ionization source (ESI); • drying gas (N2) temperature was 500°C; • electrospray voltage was 5500V; • the detection method was positive ion detection; • the scanning method was selected reaction monitoring (MRM); • the scanning time was 0.1s.

[2] = Pharmacokinetic determination in rats (IV and PO, plasma, LCMS/MS); assay type: in vivo, SD rats
Outline: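 Male SD rats (3/group), fasted overnight, dosed PO at 30 mg/kg in 10% Captisol/50 mM citrate pH 5.0 or IV at 1 mg/kg in 5% DMSO/10% Solutol HS15/85% PBS. Jugular plasma (EDTA-2K) sampled predose to 24 h; analysed by LCMS/MS.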

[3] = PO 30 mg/kg vs IV 1 mg/kg, male SD rats
[4] = rat, in vivo, IV, 1 mg/kg, male SD rats, overnight fasting, plasma, read-out: AUCo-∞
[5] = rat, in vivo, IV, 1 mg/kg, male SD rats, overnight fasting, plasma, read-out: C0
[6] = rat, in vivo, IV, 1 mg/kg, male SD rats, overnight fasting, plasma, read-out: CL
[7] = rat, in vivo, IV, 1 mg/kg, male SD rats, overnight fasting, plasma, read-out: T1/2 (converted)
[8] = rat, in vivo, PO, 30 mg/kg, male SD rats, overnight fasting, plasma, read-out: AUCo-∞
[9] = rat, in vivo, PO, 30 mg/kg, male SD rats, overnight fasting, plasma, read-out: Cmax
[10] = rat, in vivo, PO, 30 mg/kg, male SD rats, overnight fasting, plasma, read-out: T1/2 (converted)
[11] = rat, in vivo, PO, 30 mg/kg, male SD rats, overnight fasting, plasma, read-out: Tmax
[12] = IV, 1 mg/kg, male SD rats, overnight fasting, plasma
[13] = PO, 30 mg/kg, male SD rats, overnight fasting, plasma

With `[2H]C([2H])([2H])[C@@H]1Oc2nc(-c3cc(O)cc4ccc(F)c(C#C)c34)c(F)c3nc(OCC4(CN5CCC(=C(F)F)CC5)CC4)nc(c23)N2C[C@H]3CC[C@H](N3)[C@@H]12` [Example 161, 4-((5S,5aS,6S,9R)-12-((1-((4-(difluoromethylene)piperidin-1-yl)methyl)cyclopropyl)methoxy)-1-fluoro-5-(methyl-d3)-5a,6,7,8,9,10-hexahydro-5H-4-oxa-3,10a,11,13,14-pentaaza-6,9-methylnaphtho[1,8-ab]hept-2-yl)-5-ethynyl-6-fluoronaphthalen-2-ol] the IC50 (p-ERK in AGS cells) was 4.9 nM, the half-life ([1]; Human plasma, 37°C) was 142 h and the “Remaining rate (%) 0 min” value ([1]; human, plasma, 0 h) was 100.00%. The “Remaining rate (%) 15 min” value ([1]; human, plasma, 0.25 h) was 93.48%, the “Remaining rate (%) 30 min” value ([1]; human, plasma, 0.5 h) was 92.44% and the “Remaining rate (%) 60 min” value ([1]; human, plasma, 1 h) was 95.19%. For the same compound, the “Remaining rate (%) 120 min” value ([1]; human, plasma, 2 h) was 97.25%, the F ([2]; rat, in vivo) was 7% and the AUC(0-inf) ([2]; rat, in vivo, iv, 1 mg/kg) was 1420 ng·h/mL. For the same compound, the C0 ([2]; rat, in vivo, iv, 1 mg/kg) was 704 ng/mL, the clearance ([2]; rat, in vivo, iv, 1 mg/kg) was 11.7 mL/min/kg and the half-life ([2]; rat, in vivo, iv, 1 mg/kg) was 8.4 h. It also gave an AUC(0-inf) ([2]; rat, in vivo, po, 30 mg/kg) of 2890 ng·h/mL, a Cmax ([2]; rat, in vivo, po, 30 mg/kg) of 254 ng/mL and a Tmax ([2]; rat, in vivo, po, 30 mg/kg) of 6 h. The half-life ([2]; rat, in vivo, po, 30 mg/kg) was 6.9 h.
With `[2H]C([2H])([2H])[C@@H]1Oc2nc(-c3cc(N)cc(Cl)c3C(F)(F)F)c(F)c3nc(OCC4(CN5CCC(=NOC)CC5)CC4)nc(c23)N2C[C@H]3CC[C@H](N3)[C@@H]12` [Example 339] the IC50 (p-ERK in AGS cells) was 4.4 nM, the F [2, 3] was 6.6% and the AUC(0-inf) [2, 4] was 98 ng·h/mL. For the same compound, the C0 [2, 5] was 174 ng/mL, the clearance [2, 6] was 170 mL/min/kg and the half-life [2, 7] was 2.6 h. It also gave an AUC(0-inf) [2, 8] of 220 ng·h/mL, a Cmax [2, 9] of 43 ng/mL and a half-life [2, 10] of 3 h. It also gave a Tmax [2, 11] of 2 h.
In the case of `C#Cc1c(F)ccc2cc(O)cc(-c3nc4c5c(nc(OCC6(CN7CCC(=C(F)F)CC7)CC6)nc5c3F)N3C[C@H]5CC[C@H](N5)[C@H]3[C@H](C)O4)c12` [Example 19-1, 4-((5S,5aS,6S,9R)-12-((1-((4-(difluoromethylene)piperidin-1-yl)methyl)cyclopropyl)methoxy)-1-fluoro-5-methyl-5a,6,7,8,9,10-hexahydro-5H-4-oxa-3,10a,11,13,14-pentaaza-6,9-methylnaphtho[1,8-ab]hept-2-yl)-5-ethynyl-6-fluoronaphthalene-2-ol], the IC50 (p-ERK in AGS cells) is reported as 5.6 nM, the “Remaining rate (%) 0 min” value ([1]; Human plasma, 37°C, 0 min) is reported as 100.00% and the “Remaining rate (%) 15 min” value ([1]; Human plasma, 37°C, 15 min) is reported as 95.61%. The “Remaining rate (%) 30 min” value ([1]; Human plasma, 37°C, 30 min) was 93.15%, the “Remaining rate (%) 60 min” value ([1]; Human plasma, 37°C, 60 min) was 85.08% and the “Remaining rate (%) 120 min” value ([1]; Human plasma, 37°C, 120 min) was 83.37%. It also gave a half-life ([1]; Human plasma, 37°C) of 15.5 h, an F [2, 3] of 5.4% and an AUC(0-inf) [2, 4] of 1900 ng·h/mL. It also gave a C0 [2, 5] of 1720 ng/mL, a clearance [2, 6] of 8.8 mL/min/kg and a half-life [2, 7] of 10.1 h. The AUC(0-inf) [2, 8] was 3080 ng·h/mL, the Cmax [2, 9] was 329 ng/mL and the half-life [2, 10] was 8.2 h. For the same compound, the Tmax [2, 11] was 2 h.
For “4-((5S,5aS,6R,9S)-12-((1-((((R)-4-(difluoromethylene)-2-methylpiperidin-1-yl)methyl)cyclopropyl)methoxy)-1-fluoro-5-(methyl-d3)-5a,6,7,8,9,10-hexahydro-5H-4-oxa-3,10a,11,13,14-pentaaza-6,9-methylnaphtho[1,8-ab]hept-2-yl)-5-ethynyl-6-fluoronaphthalen-2-ol [Example 162]”, the “AUCo-∞” value [2, 12] was 514 ng·h/mL, the C0 [2, 12] was 438 ng/mL and the CL [2, 12] was 32.4 mL/min/kg. For the same compound, the T1/2 [2, 12] was 10.8 h, the F [2, 3] was 10.3% and the “AUCo-∞” value [2, 13] was 1591 ng·h/mL. For the same compound, the Cmax [2, 13] was 89 ng/mL, the T1/2 [2, 13] was 10.5 h and the Tmax [2, 13] was 4.0 h.
With `C#Cc1c(F)ccc2cc(O)cc(-c3nc4c5c(nc(OCC6(CN7CCC(=CF)CC7)CC6)nc5c3F)N3C[C@H]5CC[C@H](N5)[C@H]3[C@H](C)O4)c12` [Example 129, 5-ethynyl-6-fluoro-4-((5S,5aS,6S,9R)-1-fluoro-12-((1-((4-(fluoromethylene)piperidin-1-yl)methyl)cyclopropyl)methoxy)-5-methyl-5a,6,7,8,9,10-hexahydro-5H-4-oxa-3,10a,11,13,14-pentaaza-6,9-methylnaphtho[1,8-ab]hept-2-yl)naphthalen-2-ol] the IC50 (p-ERK in AGS cells) was 2.4 nM, the t1/2 ([1]; Human plasma, 37°C) was “∞” and the “Remaining rate (%) 0 min” value ([1]; Human plasma, 37°C, 0 min) was 100.00%. The “Remaining rate (%) 15 min” value ([1]; Human plasma, 37°C, 15 min) was 109.00%, the “Remaining rate (%) 30 min” value ([1]; Human plasma, 37°C, 30 min) was 97.59% and the “Remaining rate (%) 60 min” value ([1]; Human plasma, 37°C, 60 min) was 101.54%. The “Remaining rate (%) 120 min” value ([1]; Human plasma, 37°C, 120 min) was 105.91%, the F [2, 3] was 5.4% and the AUC(0-inf) [2, 4] was 578 ng·h/mL. The C0 [2, 5] was 2120 ng/mL, the clearance [2, 6] was 28.8 mL/min/kg and the half-life [2, 7] was 11.7 h. The AUC(0-inf) [2, 8] was 938 ng·h/mL, the Cmax [2, 9] was 103 ng/mL and the half-life [2, 10] was 9.6 h. It also gave a Tmax [2, 11] of 1 h.
Compound `C#Cc1c(F)ccc2cc(O)cc(-c3nc4c5c(nc(OCC6(CN7CCC(=NOC)CC7)CC6)nc5c3F)N3C[C@H]5CC[C@H](N5)[C@H]3[C@H](C)O4)c12` [Example 35-1, 1-((1-((((5S,5aS,6S,9R)-2-(8-ethynyl-7-fluoro-3-hydroxynaphthalen-1-yl)-1-fluoro-5-methyl-5a,6,7,8,9,10-hexahydro-5H-4-oxa-3,10a,11,13,14-pentaaza-6,9-methylenenaphtho[1,8-ab]heptalen-12-yl)oxo)methyl)cyclopropyl)methyl)piperidin-4-one O-methyloxime formate] has an IC50 (p-ERK in AGS cells) of 2.7 nM, an F [2, 3] of 3.5% and an AUC(0-inf) [2, 4] of 571 ng·h/mL. For the same compound, the C0 [2, 5] was 2810 ng/mL, the clearance [2, 6] was 29.2 mL/min/kg and the half-life [2, 7] was 5.7 h. The AUC(0-inf) [2, 8] was 601 ng·h/mL, the Cmax [2, 9] was 108 ng/mL and the half-life [2, 10] was 3.4 h. The Tmax [2, 11] was 2 h.
`CON=C1CCN(CC2(COc3nc4c5c(nc(-c6cc(N)cc(Cl)c6C(F)(F)F)c(F)c5n3)O[C@@H](C)[C@@H]3[C@@H]5CC[C@H](CN43)N5)CC2)CC1` [Example 337, 1-((1-((((5S,5aS,6S,9R)-2-(5-amino-3-chloro-2-(trifluoromethyl)phenyl)-1-fluoro-5-methyl-5a,6,7,8,9,10-hexahydro-5H-4-oxa-3,10a,11,13,14-pentaaza-6,9-methylnaphtho[1,8-ab]heptene-12-yl)oxy)methyl)cyclopropyl)methyl)piperidin-4-one O-methyloxime] gave an IC50 (p-ERK in AGS cells) of 4.6 nM, an AUC(0-inf) [2, 8] of 374 ng·h/mL and a Cmax [2, 9] of 41 ng/mL. The half-life [2, 10] was 4.2 h and the Tmax [2, 11] was 4 h.
In the case of `[2H]C([2H])(Oc1nc2c3c(nc(-c4cc(O)cc5ccc(F)c(C#C)c45)c(F)c3n1)O[C@@H](C)[C@@H]1[C@@H]3CC[C@H](CN21)N3)C1(C([2H])([2H])N2CCC(=CF)CC2)CC1` [Example 291, 5-ethynyl-6-fluoro-4-((5S,5aS,6S,9R)-1-fluoro-12-((1-((4-(fluoromethylene)piperidin-1-yl)methyl-d2)cyclopropyl)methoxy-d2)-5-methyl-5a,6,7,8,9,10-hexahydro-5H-4-oxa-3,10a,11,13,14-pentaaza-6,9-methylnaphtho[1,8-ab]hept-2-yl)naphthalen-2-ol], the IC50 (p-ERK in AGS cells) is reported as 2.3 nM, the “Remaining rate (%) 0 min” value ([1]; Human plasma, 37°C, 0 min) is reported as 100.00% and the “Remaining rate (%) 15 min” value ([1]; Human plasma, 37°C, 15 min) is reported as 102.43%. The “Remaining rate (%) 30 min” value ([1]; Human plasma, 37°C, 30 min) was 95.46%, the “Remaining rate (%) 60 min” value ([1]; Human plasma, 37°C, 60 min) was 105.44% and the “Remaining rate (%) 120 min” value ([1]; Human plasma, 37°C, 120 min) was 96.68%. The half-life ([1]; Human plasma, 37°C) was 115 h.
